Assay results published in the supplement of paper PMC10307832.

Experiments:
Test in all cases: relative viability (nuclei count vs DMSO), 5 days (fraction); higher = more cells survive
[1] = compound: CC1CC(=O)N(C2=CN=C(N=C2N1C3CCCC3)NC4=C(C=C(C=C4)C(=O)NC5CCN(CC5)C)OC)C [NPK76-II-72-1] + C[C@@H](Oc1cc(-c2cnn(C3CCNCC3)c2)cnc1N)c1c(Cl)ccc(F)c1Cl [Crizotinib] (partner 1 µM)
Summary of the method: (§1)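 Lung cancer cell lines, seeded in 1536-well plates, were treated the following day by pin tool with a single drug or with five library-drug doses (not always all listed) in √10 steps on top of a fixed anchor-drug dose. Cells were fixed and nuclei stained in one step after 5 days, and nuclei were counted. Relative viability is the nuclei count for treated wells divided by that for vehicle wells, reported as medians of duplicate plates.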

[2] = compound: CC1CC(=O)N(C2=CN=C(N=C2N1C3CCCC3)NC4=C(C=C(C=C4)C(=O)NC5CCN(CC5)C)OC)C [NPK76-II-72-1] + C[C@]1(O)C[C@@H](c2nc(-c3ccc4ccc(-c5ccccc5)nc4c3)c3c(N)nccn32)C1 [Linsitinib] (partner 1 µM)
Summary of the method: as §1

[3] = compound: CC[C@@H]1C(=O)N(C)c2cnc(Nc3ccc(C(=O)NC4CCN(C)CC4)cc3OC)nc2N1C1CCCC1 [BI-2536] + Nc1ncn([C@H]2C[C@H](O)[C@@H](CO)O2)c(=O)n1 [Decitabine] (partner 2 µM)
Summary of the method: as §1

[4] = compound: CC[C@@H]1C(=O)N(C)c2cnc(Nc3ccc(C(=O)NC4CCN(C)CC4)cc3OC)nc2N1C1CCCC1 [BI-2536] + CC(=O)c1c(C)c2cnc(Nc3ccc(N4CCNCC4)cn3)nc2n(C2CCCC2)c1=O [Palbociclib] (partner 0.5 µM)
Summary of the method: as §1

Cell Line	relative viability ([1]; first compound 0.01 µM)	relative viability ([1]; first compound 0.03162 µM)	relative viability ([1]; first compound 0.1 µM)	relative viability ([1]; first compound 0.3162 µM)	relative viability ([1]; first compound 1 µM)	relative viability ([2]; first compound 0.01 µM)	relative viability ([2]; first compound 0.03162 µM)	relative viability ([2]; first compound 0.1 µM)	relative viability ([2]; first compound 0.3162 µM)	relative viability ([2]; first compound 1 µM)	relative viability ([3]; first compound 0.01 µM)	relative viability ([3]; first compound 0.03162 µM)	relative viability ([3]; first compound 0.1 µM)	relative viability ([3]; first compound 0.3162 µM)	relative viability ([3]; first compound 1 µM)	relative viability ([4]; first compound 0.01 µM)	relative viability ([4]; first compound 0.03162 µM)	relative viability ([4]; first compound 0.1 µM)	relative viability ([4]; first compound 0.3162 µM)	relative viability ([4]; first compound 1 µM)
HCC-44	0.734	0.772	0.827	0.795	0.846	0.634	0.701	0.635	0.681	0.716	1.01	0.974	0.843	0.332	0.298	1.05	0.959	0.947	0.404	0.312
HCC-78		0.33	0.355		0.368		0.529	0.487		0.516	0.678	0.692	0.694	0.363	0.331	0.566	0.475	0.431	0.436	0.318
HCC-366	0.458	0.683	0.694	0.429	0.59	0.54	0.688	0.704	0.707	0.777	0.407	0.408	0.248	0.036	0.0402	0.364	0.389	0.225	0.0306	0.0265
HCC-827	1.01	0.912	0.902	0.895	0.892	0.891	0.91	0.939	0.855	1.01	0.357	0.363	0.269	0.203	0.117	0.467	0.435	0.467	0.267	0.186
HOP-62	0.85	0.907	0.75	0.896	0.982	0.908	1.05	0.922	1.05	0.89	0.201	0.209	0.231	0.151	0.142	0.421	0.409	0.443	0.17	0.143
IA-LM	0.704	0.818	0.727	0.616	0.989	0.582	0.684	0.435	0.597	0.809										
LC-2-ad	0.449		0.453	0.44	0.51	0.78	0.767	0.854	0.801	0.834	0.739	0.659	0.506	0.247	0.223	0.526	0.379	0.361	0.234	0.248
LCLC-97TM1		0.414	0.438	0.259	0.354		0.16	0.167	0.192	0.156	0.228	0.277	0.163	0.0912	0.0986	0.225	0.203	0.144	0.107	0.0769
LCLC-103H	0.919	0.962	1.04	0.916	1.18	1.04	1.16	1.02	1.03	1.01	0.792	0.749	0.652	0.322	0.333	0.473	0.508	0.421	0.371	0.294
